Measured values published in patent US20070154981A1, “Insulin-producing cells derived from stem cells” (THE BOARD of TRUSTEES of the LELAND STANFORD JUNIOR …, priority 2003, published 2007).

Tested on: human NS cells
Experiment: Insulin content of IPCCs derived from human NS cells, by ELISA
Type: cell-based
From the text: Human NS cells from StemCells Inc. (Palo Alto, Calif.). Until stage 1, cells are maintained in neurospheres as described in Uchida et al, 2000, Proc Natl Acad Sci U S A. 2000 Dec. 19;97(26):14720-5. […]

`CC1=C(/C=C/C(C)=C/C=C/C(C)=C/C(=O)O)C(C)(C)CCC1` [retinoic acid, all-trans-Retinoic acid] was tested. Which “insulin levels relative to levels found in human pancreatic islets” value (1 micromolar retinoic acid for 6 days, stage 2 IPCCs, ELISA) did it give?
The value was 0.1%.

What about the “insulin production compared with cells cultured with SHH and retinoic acid” value (retinoic acid alone versus SHH and retinoic acid) of the same compound?
The value was “higher level of insulin production”.
